The values below come from paper PMC5045383 (Oncotarget, 2016).

For one assay, the system named is HL-60 (FLT3-wt). Briefly: Cell proliferation assay (CellTiter-Glo). Particulars: 72 hours. Type of assay: cell-based, human. As for the experimental part:
(§1) Cells were grown in 96-well culture plates (3000/well). […] Cell proliferation was determined after 72 hours drug treatment. […] Cell viability was measured with the CellTiter–Glo assay (Promega, USA), according to the manufacturer's instructions, and luminescence was measured in a multi-label reader (Envision, PerkinElmer, USA). […] GI50 values were calculated using Prism 5.0 (GraphPad Software, San Diego, CA).
For orientation: In ATP-based viability assays light output follows the ATP content of the culture.

The subject of the next assay is SKM-1 (FLT3-wt). Briefly: Cell proliferation assay (CellTiter-Glo). Type of assay: cell-based, human. The note with it: 72 hours. As for the experimental part:
as §1

Another assay concerns BaF3. Briefly: Anti-proliferation, parental BaF3 cells. The class given is cell-based. As for the experimental part:
Cells were grown in 96-well culture plates (3000/well). […] Cell proliferation was determined after 72 hours drug treatment. […] Cell viability was measured with the CellTiter–Glo assay (Promega, USA), according to the manufacturer's instructions, and luminescence was measured in a multi-label reader (Envision, PerkinElmer, USA). Data were normalized to control groups (DMSO) and represented by the mean of three independent measurements with standard error < 20%. GI50 values were calculated using Prism 5.0 (GraphPad Software, San Diego, CA).
(§2) Retroviral constructs for BaF3-FLT3 mutants were made based on the pMSCVpuro (Clontech) backbone. For TEL-FLT3 vector, the first 1 kb of human TEL gene with an artificial myristoylation sequence ([…]) was cloned into pMSCVpuro retroviral vector, followed by a 3xFLAG tag sequence and a stop codon. Then the kinase domain coding sequence of FLT3 was inserted in-frame between TEL and 3× FLAG sequences. For full-length expression vectors, the coding sequences of FLT3 variants were directly cloned in pMSCVpuro vector with a 3X FLAG tag at the C-terminal end. All mutagenesis studies were performed using the QuikChange Site-Directed Mutagenesis Kit (Stratagene) following the manufacturer's instructions. […]

Another assay relates to HL-60. Briefly: Colony formation (clonogenic) assay. Particulars: HL-60, 15 days. Type of assay: cell-based, human. The procedure:
(§3) In brief, 1 mL of 3% agarose combined with 1 mL MOLM-13, MOLM-14, MV4-11, PF-382, U937, HL-60 growth media was used as the bottom agar in a 6-well plate. […] Cells were maintained in a humidified 5% CO2 incubator at 37°C for 15 days. On the 15th day, the numbers of colonies in each well were counted and each measurement was performed in triplicate.

The subject of another assay is MOLM13. Briefly: Colony formation (clonogenic) assay. Type of assay: cell-based, human. Particulars: MOLM13, 15 days. The procedure:
as §3

A further assay has as its system MOLM14. Briefly: Colony formation (clonogenic) assay. The class given is cell-based, human. Particulars: MOLM14, 15 days. As for the experimental part:
as §3

The next assay concerns MV4-11. Briefly: Colony formation (clonogenic) assay. The class given is cell-based, human. Particulars: MV4-11, 15 days. As for the experimental part: as §3
A further assay deals with PF382. Briefly: Colony formation (clonogenic) assay. Type of assay: cell-based, human. Particulars: PF382, 15 days. The procedure:
as §3

For the next assay, the system named is U937. Briefly: Colony formation (clonogenic) assay. The class given is cell-based, human. Particulars: U937, 15 days. The procedure: as §3
A further assay concerns FLT3-ITD-D835Y. Briefly: Auto-phosphorylation of FLT3 in transformed BaF3 isogenic cells. The class given is cell-based.
From the text: (§4) The following antibodies were purchased from Cell Signaling Technology (Danvers, MA): FLT3 (8F2) Rabbit mAb (#3462), Phospho-FLT3 (Tyr589/591) (30D4) Rabbit mAb (#3464), NF-κB p65 (D14E12) XP® Rabbit mAb (#8242), Phospho-NF-κB p65 (Ser536) (93H1) Rabbit mAb (#3033), Stat5 Antibody (#9363), Phospho-Stat5 (Tyr694) (C71E5) Rabbit mAb (#9314), c-Myc (D84C12) XP® Rabbit mAb (#5605), Akt (pan) (C67E7) Rabbit mAb (#4691), Phospho-Akt (Thr308) (244F9) Rabbit mAb (#4056), Phospho-Akt (Ser473) (D9E) XP® Rabbit mAb (#4060), p44/42 MAPK (Erk1/2) (137F5) Rabbit mAb (#4695), Phospho-p44/42 MAPK (Erk1/2) (Thr202/Tyr204) (D13.14.4E) XP® Rabbit mAb (#4370), GAPDH (D16H11) XP® Rabbit mAb, PARP (46D11) rabbit mAb (#9532), Caspase-3 (8G10) rabbit mAb (#9665), GSK-3β (27C10) Rabbit mAb (#9315), Phospho-GSK-3β (Ser9) (5B3) Rabbit mAb (#9323), FoxO1 (C29H4) Rabbit mAb (#2880), Phospho-FoxO1 (Thr24)/FoxO3a (Thr32)/FoxO4 (Thr28) (4G6) Rabbit mAb (#2599), PRAS40 (D23C7) XP® Rabbit mAb (#2691), Phospho-PRAS40 (Thr246) (C77D7) Rabbit mAb (#2997), 4E-BP1 (#9644), 4E-BP1 (53H11) Rabbit mAb (#9644), p70 S6 Kinase (49D7) Rabbit mAb (#2708), Phospho-p70 S6 Kinase (Thr389) (108D2) Rabbit mAb (#9234). Antibodies were used at 1:1000. Protein lysate preparation and immunoblotting were carried out as previously described.
as §2

Another assay concerns FLT3-ITD-F691L. Described as above. The class given is cell-based.
From the text: as §4, §2

For assay [1], the system named is FLT3-ITD. Described as above. Type of assay: cell-based.
From the text: as §4, §2

In assay [2] the test system is FLT3-ITD. Briefly: Kinase kinetic assay (ADP-Glo, varied ATP). Particulars: range of ATP concentrations. The class given is biochemical. As for the experimental part:
Kinetic analyses of FLT3-ITD were performed using a luminometric kinase assay varying the concentration of ATP using the ADP-Glo reagents (Promega). […] After 60 min incubation at RT, various concentrations of ATP, 0.2 μg/μL FLT3 substrate Poly (4:1 Glu, Tyr) peptide added and incubated for 60 min at 37°C. The overall rate of reaction is determined as the slope of the decreasing phase of the reaction. Each data point was collected in duplicate and kinetic parameters were obtained using Prism 5.0 (GraphPad Software, San Diego, CA).
A general note: ADP-Glo turns the ADP formed in a reaction into a luminescent signal.

For orientation: GI50 means the concentration that inhibits growth by half. For orientation: EC50 means the concentration giving half of the maximal effect. A lower EC50 goes with greater potency. In the case of `Cc1[nH]nc2ccc(-c3cncc(OC[C@@H](N)Cc4ccccc4)c3)cc12` [A674563], the GI50 in the assay on HL-60 (FLT3-wt) was 2600 nM; in the assay with SKM-1 (FLT3-wt) it was 2000 nM; with BaF3 it was 1600 nM. Further, the EC50 with HL-60 amounted to 387 nM; with MOLM13 it was 170 nM; with MOLM14 it was 61 nM; with MV4-11 it was 92 nM; in the assay on PF382, 861 nM; in the assay with U937, 505 nM. Moreover, the EC50 with FLT3-ITD-D835Y was 1260 nM; with FLT3-ITD-F691L it was 400 nM; with FLT3-ITD [1] it was 85 nM. Besides, the “mode of inhibition (kinetics analysis)” value with FLT3-ITD [2] is recorded as “ATP competitive inhibitor”.
